Measurements as given in US12509424B2, “Compound and composition as PDGF receptor kinase inhibitor” (NIPPON SHINYAKU CO., LTD., priority 2019, dated 2025).
pIC50: −log10 of the molar value. Like-named read-outs stand apart in the source and are kept apart here.

Experiments:
[1] = target: TEL-PDGFRβ fusion gene transfected cells (Ba/F3); test: Suppression of proliferation of TEL-PDGFRβ fusion gene transfected Ba/F3 cells; format: cell-based, human; details: TEL-PDGFRβ expressing Ba/F3 cells, 72 hours, final concentration 0.1 to 10,000 nM; read-out: PDGFR β/BaF3 proliferation inhibition (IC50)
Excerpt: 2. Preparation of Test Substance
4. Analysis of Measurement Results

[2] = target: TEL-KIT fusion gene transfected cells (Ba/F3); test: Suppression of proliferation of TEL-KIT fusion gene transfected Ba/F3 cells; details: read-out: KIT/BaF3 proliferation inhibition (IC50); TEL-KIT expressing Ba/F3 cells, 72 hours, final concentration 0.1 to 10,000 nM;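 further: viable cells quantified via formazan from tetrazolium reduction, inhibition scaled with 0.1% DMSO control as 0% and medium-only blank as 100%, IC50 from two-parameter logistic fit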
Excerpt: Fabrication of TEL-PDGFRβ and TEL-KIT Fusion Gene Transfected Cells
Subsequently, the vectors for gene transfection were introduced using a transfection reagent (FuGENE6, Promega Corporation) into packaging cells derived from a human fetal kidney cell line, PLAT-E, in the logarithmic growth phase. Since the culture supernatant of PLAT-E after the gene transfection contained virus particles for gene transfection, it was collected and used as a medium for gene transfection. The medium for gene transfection was added to a plate coated with RetroNectin and incubated, and the virus particles were allowed to adhere to the plate. Thereafter, the mouse pro-B cell line Ba/F3 in the logarithmic growth phase was seeded onto the plate and infected with the virus to fabricate cells that proliferate in a PDGFRβ or KIT dependent manner.
The test substance was prepared with dimethyl sulfoxide (DMSO) to 10 mM and diluted with DMSO so as to reach a concentration of 0.0001 to 3 mM. Furthermore, it was diluted by 100 times with distilled water.
Measurement of Suppression Action Against Proliferation of TEL-PDGFRβ or TEL-KIT Expressing Cells
The day after TEL-PDGFRβ and TEL-KIT expressing cells were seeded onto 96 well plates, the prepared test substance solution was added thereto with a final concentration being 0.1 to 10,000 nM. After 72 hours, the viable cell count was measured using the amount of formazan generated from the reduction of a tetrazolium salt compound by the mitochondrial dehydrogenase of viable cells as an indicator.
Based on the amount of formazan in each condition, the suppression rate against cell proliferation was calculated when the amounts of formazan in the negative control (0.1% DMSO solution) and Blank (medium only) were defined as 0% and 100%, respectively. Subsequently, a nonlinear regression analysis with a two parameter logistic model for the log dose and suppression rate against cell proliferation was carried out using the SAS system (SAS Institute Inc.) to estimate the IC50 value.

[3] = target: PDGFR-β (Homo sapiens (Human), UniProt P09619); test: PDGFR-β tyrosine kinase inhibitory action (HTRF KinEASE-TK); format: biochemical; details: PDGFR-β enzyme 1 ng/μL, 30° C. for 30 minutes; read-out: PDGF-β IC50
Outline: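 Recombinant PDGFR-β at 1 ng/μL final with TK substrate-3-biotin in a substrate solution containing 0.6 μM ATP; buffer 50 mM HEPES pH 7.0, 5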

[4] = test system: pulmonary arterial smooth muscle cells; test: Suppression of proliferation of pulmonary arterial smooth muscle cells (PDGF-BB stimulation, BrdU); format: cell-based; details: PASMC, read-out: Human normal PASMC proliferation suppression (PDGF stimulation_IC50)
Outline: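 Test compound (final 3 to 10,000 nM) was added together with BrdU and PDGF-BB (final 10 ng/mL) to healthy human pulmonary artery smooth muscle cells held a day in 0.1% FBS. Proliferation was read after 1 day as anti-BrdU-detected BrdU incorporation.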

[5] = 24 h, healthy human derived pulmonary arterial smooth muscle cells, human PDGF-BB 10 ng/mL stimulation, BrdU uptake after 1 day, test substance final concentration 3 to 10,000 nM
[6] = human PDGF-BB 10 ng/mL, BrdU uptake, final concentration 3 to 10,000 nM

Chain of PDGFR-β (P09619 33-1106): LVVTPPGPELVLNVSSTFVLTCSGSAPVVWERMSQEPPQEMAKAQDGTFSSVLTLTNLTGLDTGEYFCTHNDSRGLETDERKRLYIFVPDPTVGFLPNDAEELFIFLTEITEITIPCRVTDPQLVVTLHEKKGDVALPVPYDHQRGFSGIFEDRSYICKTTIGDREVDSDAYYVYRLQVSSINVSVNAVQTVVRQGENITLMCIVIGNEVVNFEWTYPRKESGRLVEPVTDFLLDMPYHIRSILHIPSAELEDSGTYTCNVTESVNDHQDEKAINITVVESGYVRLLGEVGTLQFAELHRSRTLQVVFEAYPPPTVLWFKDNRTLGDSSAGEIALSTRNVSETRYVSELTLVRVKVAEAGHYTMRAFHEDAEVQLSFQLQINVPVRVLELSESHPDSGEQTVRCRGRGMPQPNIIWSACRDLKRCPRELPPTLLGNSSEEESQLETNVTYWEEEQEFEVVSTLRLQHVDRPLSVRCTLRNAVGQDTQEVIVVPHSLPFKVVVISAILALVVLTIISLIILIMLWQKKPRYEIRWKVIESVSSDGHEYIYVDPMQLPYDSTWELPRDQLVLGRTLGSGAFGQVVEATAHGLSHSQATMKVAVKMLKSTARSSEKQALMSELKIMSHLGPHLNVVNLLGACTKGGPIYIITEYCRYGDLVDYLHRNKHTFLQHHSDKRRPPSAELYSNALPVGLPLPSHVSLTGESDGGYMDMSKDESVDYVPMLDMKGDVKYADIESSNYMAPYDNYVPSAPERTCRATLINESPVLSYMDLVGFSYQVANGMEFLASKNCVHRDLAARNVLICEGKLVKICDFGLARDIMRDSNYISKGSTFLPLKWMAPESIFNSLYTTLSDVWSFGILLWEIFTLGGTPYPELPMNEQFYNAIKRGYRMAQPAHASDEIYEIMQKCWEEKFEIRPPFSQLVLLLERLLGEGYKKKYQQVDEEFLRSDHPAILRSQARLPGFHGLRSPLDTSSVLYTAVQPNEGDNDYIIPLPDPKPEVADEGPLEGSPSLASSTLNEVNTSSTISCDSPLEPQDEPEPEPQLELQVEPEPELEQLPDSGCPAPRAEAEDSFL
Chain of TEL-PDGFRβ fusion gene transfected cells (Ba/F3) (P09619 33-1106 limits assumed, change not shown): as the sequence (P09619 33-1106) above
Chain of TEL-KIT fusion gene transfected cells (Ba/F3) (P10721 26-976 limits assumed, change not shown): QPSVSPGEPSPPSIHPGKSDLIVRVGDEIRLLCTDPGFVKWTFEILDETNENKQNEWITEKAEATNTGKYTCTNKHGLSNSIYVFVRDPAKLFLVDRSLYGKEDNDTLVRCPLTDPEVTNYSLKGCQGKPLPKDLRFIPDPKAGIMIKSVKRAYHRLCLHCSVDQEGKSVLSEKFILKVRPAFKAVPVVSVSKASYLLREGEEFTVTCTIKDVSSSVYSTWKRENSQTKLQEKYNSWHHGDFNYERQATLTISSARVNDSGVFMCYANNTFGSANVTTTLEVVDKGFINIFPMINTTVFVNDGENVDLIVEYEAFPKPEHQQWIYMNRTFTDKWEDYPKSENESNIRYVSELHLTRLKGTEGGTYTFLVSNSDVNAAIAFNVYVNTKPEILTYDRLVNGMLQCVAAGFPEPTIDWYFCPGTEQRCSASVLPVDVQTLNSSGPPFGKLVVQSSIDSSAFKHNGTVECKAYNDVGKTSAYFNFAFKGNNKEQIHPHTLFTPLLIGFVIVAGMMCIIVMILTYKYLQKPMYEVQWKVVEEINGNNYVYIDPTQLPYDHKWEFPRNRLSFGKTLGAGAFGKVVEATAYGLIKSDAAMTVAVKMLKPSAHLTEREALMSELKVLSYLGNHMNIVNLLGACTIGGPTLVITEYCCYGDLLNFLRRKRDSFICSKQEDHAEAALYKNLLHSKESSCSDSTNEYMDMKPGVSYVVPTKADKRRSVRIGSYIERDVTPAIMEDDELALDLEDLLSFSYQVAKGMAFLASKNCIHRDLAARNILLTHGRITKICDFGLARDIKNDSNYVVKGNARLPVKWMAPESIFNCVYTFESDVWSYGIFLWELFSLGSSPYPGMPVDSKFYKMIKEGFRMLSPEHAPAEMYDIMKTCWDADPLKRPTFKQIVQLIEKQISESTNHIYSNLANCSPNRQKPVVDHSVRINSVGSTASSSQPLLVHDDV

| SMILES | pIC50 [1] | pIC50 [2] | pIC50 [3] | pIC50 [4, 5] | pIC50 [4, 6] |
| --- | --- | --- | --- | --- | --- |
| Cc1ccc(C(=O)N[C@H]2CCCC[C@@H]2O)cc1C(=O)Nc1cncc(-c2ccccc2)c1 [Example 77, N^1-[(1S,2S)-2-hydroxycyclohexyl]-4-methyl-N^3-(5-phenylpyridin-3-yl)benzene-1,3-dicarboxamide] | 7.10 | 6.22 | 7.42 |  |  |
| Cc1ccc(C(=O)N[C@H]2CCCC[C@@H]2O)cc1OC(C)c1cncc(-c2ncccn2)c1 (stereo partly drawn) [Example 171, N-[(1S,2S)-2-hydroxycyclohexyl]-4-methyl-3-{1-[5-(pyrimidin-2-yl)pyridin-3-yl]ethoxy}benzamide] | 7.92 | 5.62 | 6.59 |  |  |
| Cc1ccc(C(=O)N[C@H]2CCCC[C@@H]2O)cc1CCc1cncc(-c2ccccc2)c1 [Example 174, N-[(1S,2S)-2-hydroxycyclohexyl]-4-methyl-3-[2-(5-phenylpyridin-3-yl)ethyl]benzamide] | 7.30 | 6.06 | 7.57 |  |  |
| O=C(N[C@H]1CCCC[C@@H]1O)c1ccc(F)c(/C=C(\F)c2cncc(NC3CCOCC3)c2)c1 [Example 185, 4-fluoro-3-[(Z)-2-fluoro-2-{5-[(oxan-4-yl)amino]pyridin-3-yl}ethenyl]-N-[(1S,2S)-2-hydroxycyclohexyl]benzamide] |  |  | 8.29 | 7.55 |  |
| CN1CCN(Cc2cncc(/C(F)=C/c3cc(C(=O)N[C@H]4CCCC[C@@H]4O)ccc3F)c2)CC1 [Example 186, 4-fluoro-3-[(Z)-2-fluoro-2-{5-[(4-methylpiperazin-1-yl)methyl]pyridin-3-yl}ethenyl]-N-[(1S,2S)-2-hydroxycyclohexyl]benzamide] |  |  | 6.82 | 6.66 |  |
| Cc1ncc(C(=O)N[C@H]2CCCC[C@@H]2O)cc1/C=C(\F)c1cncc(OCC2CC2)c1 [Example 187, 5-{(Z)-2-[5-(cyclopropylmethoxy)pyridin-3-yl]-2-fluoroethenyl}-N-[(1S,2S)-2-hydroxycyclohexyl]-6-methylpyridine-3-carboxamide] |  |  | 7.85 | 7.70 |  |
| Cc1ncc(C(=O)N[C@H]2CCCC[C@@H]2O)cc1/C=C(\F)c1cncc(N2CCOCC2)c1 [Example 188, 5-{(Z)-2-fluoro-2-[5-(morpholin-4-yl)pyridin-3-yl]ethenyl}-N-[(1S,2S)-2-hydroxycyclohexyl]-6-methylpyridine-3-carboxamide] |  |  | 7.17 | 7.22 |  |
| Cc1ncc(C(=O)N[C@H]2CCCC[C@@H]2O)cc1/C=C(\F)c1ccc(N)nc1 [Example 189, 5-[(Z)-2-(6-aminopyridin-3-yl)-2-fluoroethenyl]-N-[(1S,2S)-2-hydroxycyclohexyl]-6-methylpyridine-3-carboxamide] |  |  | 6.70 | 7.05 |  |
| Cc1ncc(C(=O)N[C@H]2CCCC[C@@H]2O)cc1/C=C(\F)c1cnc(N)nc1 [Example 190, 5-[(Z)-2-(2-aminopyrimidin-5-yl)-2-fluoroethenyl]-N-[(1S,2S)-2-hydroxycyclohexyl]-6-methylpyridine-3-carboxamide] |  |  | 6.96 | 6.96 |  |
| Nc1ccc(/C(F)=C/c2cc(C(=O)N[C@H]3CCCC[C@@H]3O)ccc2F)cn1 [Example 191, 3-[(Z)-2-(6-aminopyridin-3-yl)-2-fluoroethenyl]-4-fluoro-N-[(1S,2S)-2-hydroxycyclohexyl]benzamide] |  |  | 7.46 | 7.54 |  |
| Nc1ncc(/C(F)=C/c2cc(C(=O)N[C@H]3CCCC[C@@H]3O)ccc2F)cn1 [Example 192, 3-[(Z)-2-(2-aminopyrimidin-5-yl)-2-fluoroethenyl]-4-fluoro-N-[(1S,2S)-2-hydroxycyclohexyl]benzamide] |  |  | 7.54 | 7.62 |  |
| Cc1ccc(C(=O)N[C@H]2CCCC[C@@H]2O)cc1/C=C(\F)c1cncc(NC2CCN(C)CC2)c1 [Example 193, 3-[(Z)-2-fluoro-2-{5-[(1-methylpiperidin-4-yl)amino]pyridin-3-yl}ethenyl]-N-[(1S,2S)-2-hydroxycyclohexyl]-4-methylbenzamide] |  |  | 9.00 | 7.74 |  |
| CCN1CCN(Cc2cncc(/C(F)=C/c3cc(C(=O)N[C@H]4CCCC[C@@H]4O)ccc3C)c2)CC1 [Example 194, 3-[(Z)-2-{5-[(4-ethylpiperazin-1-yl)methyl]pyridin-3-yl}-2-fluoroethenyl]-N-[(1S,2S)-2-hydroxycyclohexyl]-4-methylbenzamide] |  |  | 7.46 | 7.13 |  |
| Cc1ncc(C(=O)N[C@H]2CCCC[C@@H]2O)cc1/C=C(\F)c1cncc(NC2COC2)c1 [Example 195, 5-[(Z)-2-fluoro-2-{5-[(oxetan-3-yl)amino]pyridin-3-yl}ethenyl]-N-[(1S,2S)-2-hydroxycyclohexyl]-6-methylpyridine-3-carboxamide] |  |  | 7.72 | 7.59 |  |
| O=C(N[C@H]1CCCC[C@@H]1O)c1ccc(F)c(/C=C(\F)c2cncc(NC3COC3)c2)c1 [Example 196, 4-fluoro-3-[(Z)-2-fluoro-2-{5-[(oxetan-3-yl)amino]pyridin-3-yl}ethenyl]-N-[(1S,2S)-2-hydroxycyclohexyl]benzamide] |  |  | 7.59 | 7.51 |  |
| Cc1ccc(C(=O)N[C@H]2CCCC[C@@H]2O)cc1/C=C(\F)c1ccc(NCCN(C)C)nc1 [Example 197, 3-[(Z)-2-(6-{[2-(dimethylamino)ethyl]amino}pyridin-3-yl)-2-fluoroethenyl]-N-[(1S,2S)-2-hydroxycyclohexyl]-4-methylbenzamide] |  |  | 6.92 | 6.96 |  |
| Cc1ccc(C(=O)N[C@H]2CCCC[C@@H]2O)cc1/C=C(\F)c1cncc(NCCN(C)C)c1 [Example 198, 3-[(Z)-2-(5-{[2-(dimethylamino)ethyl]amino}pyridin-3-yl)-2-fluoroethenyl]-N-[(1S,2S)-2-hydroxycyclohexyl]-4-methylbenzamide] |  |  | 8.14 | 7.41 |  |
| Cc1ncc(C(=O)N[C@H]2CCCC[C@@H]2O)cc1/C=C(\F)c1ccc(NCC2CC2)nc1 [Example 199, 5-[(Z)-2-{6-[(cyclopropylmethyl)amino]pyridin-3-yl}-2-fluoroethenyl]-N-[(1S,2S)-2-hydroxycyclohexyl]-6-methylpyridine-3-carboxamide] |  |  | 7.28 | 7.15 |  |
| Cc1ccc(C(=O)N[C@H]2c3ccccc3C[C@@H]2O)cc1/C=C(\F)c1cncc(CN2CCN(C)CC2)c1 [Example 200, 3-[(Z)-2-fluoro-2-{5-[(4-methylpiperazin-1-yl)methyl]pyridin-3-yl}ethenyl]-N-[(1S,2S)-2-hydroxy-2,3-dihydro-1H-inden-1-yl]-4-methylbenzamide] |  |  | 7.80 | 6.92 |  |
| Cc1ccc(C(=O)NCC(O)C(C)(C)C)cc1/C=C(\F)c1cncc(CN2CCN(C)CC2)c1 (stereo not shown) [Example 201, 3-[(Z)-2-fluoro-2-{5-[(4-methylpiperazin-1-yl)methyl]pyridin-3-yl}ethenyl]-N-(2-hydroxy-3,3-dimethylbutyl)-4-methylbenzamide] |  |  | 7.42 | 6.92 |  |
| O=C(N[C@H]1CCCC[C@@H]1O)c1ccc(F)c(/C=C(\F)c2cnc(NCC3CC3)nc2)c1 [Example 202, 3-[(Z)-2-{2-[(cyclopropylmethyl)amino]pyrimidin-5-yl}-2-fluoroethenyl]-4-fluoro-N-[(1S,2S)-2-hydroxycyclohexyl]benzamide] |  |  | 7.11 | 7.48 |  |
| O=C(N[C@H]1CCCC[C@@H]1O)c1ccc(F)c(/C=C(\F)c2cnc(NC3CC3)nc2)c1 [Example 203, 3-{(Z)-2-[2-(cyclopropylamino)pyrimidin-5-yl]-2-fluoroethenyl}-4-fluoro-N-[(1S,2S)-2-hydroxycyclohexyl]benzamide] |  |  | 7.21 | 6.70 |  |
| Cc1nc(N)ncc1/C(F)=C/c1cc(C(=O)N[C@H]2CCCC[C@@H]2O)ccc1F [Example 204, 3-[(Z)-2-(2-amino-4-methylpyrimidin-5-yl)-2-fluoroethenyl]-4-fluoro-N-[(1S,2S)-2-hydroxycyclohexyl]benzamide] |  |  | 7.68 | 7.28 |  |
| CNc1ncc(/C(F)=C/c2cc(C(=O)N[C@H]3CCCC[C@@H]3O)ccc2F)cn1 [Example 205, 4-fluoro-3-{(Z)-2-fluoro-2-[2-(methylamino)pyrimidin-5-yl]ethenyl}-N-[(1S,2S)-2-hydroxycyclohexyl]benzamide] |  |  | 6.89 | 6.80 |  |
| Cc1ccc(C(=O)N[C@H]2CCCC[C@@H]2O)cc1/C=C(\F)c1cnc(N)cn1 [Example 206, 3-[(Z)-2-(5-aminopyrazin-2-yl)-2-fluoroethenyl]-N-[(1S,2S)-2-hydroxycyclohexyl]-4-methylbenzamide] |  |  | 7.51 |  | 7.04 |
| O=C(N[C@H]1CCCC[C@@H]1O)c1ccc(F)c(/C=C(\F)c2cncc(F)c2)c1 [Example 207, 4-fluoro-3-[(Z)-2-fluoro-2-(5-fluoropyridin-3-yl)ethenyl]-N-[(1S,2S)-2-hydroxycyclohexyl]benzamide] |  |  | 7.00 |  | 7.00 |
